Laboratory results reported in ChEMBL document CHEMBL1201862, “PubChem BioAssay data set” (2004).
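Test compounds were applied to cells in 96-well plates for 48 hours at 5 doses. GI50 = concentration required for 50% inhibition of growth.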 Active and inactive are the calls of the source. Rule as the data show it: active = GI50 up to about 1.1 µM and inactive = higher.

Assays:
Assay in all cases: NCI anticancer screen, dose series, 48 h
[1] = system: SW-620
[2] = system: M14
[3] = system: RXF 393
[4] = system: SK-MEL-28
[5] = system: NCI-H226
[6] = system: OVCAR-5
[7] = system: PC-3
[8] = system: HL-60
[9] = system: HT-29
[10] = system: OVCAR-4
[11] = system: COLO 205
[12] = system: SF-295
[13] = system: 786-0
[14] = system: BT-549
[15] = system: HCT-15
[16] = system: LOX IMVI
[17] = system: MOLT-4
[18] = system: OVCAR-8
[19] = system: A498
[20] = system: SK-MEL-2

Row | SMILES | GI50 [1] | GI50 [2] | GI50 [3] | GI50 [4] | GI50 [5] | GI50 [6] | GI50 [7] | GI50 [8] | GI50 [9] | GI50 [10] | GI50 [11] | GI50 [12] | GI50 [13] | GI50 [14] | GI50 [15] [µM] | GI50 [16] | GI50 [17] | GI50 [18] | GI50 [19] | GI50 [20]
1 | COc1cc2cc(C(=O)N3CC(COS(C)(=O)=O)c4c3cc([N+](=O)[O-])c3ccccc43)[nH]c2c(OC)c1OC (stereo not drawn) | 1.79 µM (inactive) | 19 µM (inactive) | 18.3 µM (inactive) | > 31.6 µM (inactive) | > 100 µM (inactive) | 18.6 µM (inactive) | 22.9 µM (inactive) | 0.794 µM (active) | 6.15 µM (inactive) | > 31.6 µM (inactive) | > 35.6 µM (inactive) | 2.37 µM (inactive) | 0.752 µM (active) | > 31.6 µM (inactive) | > 31.6 | 33.2 µM (inactive) | 0.407 µM (active) | 2.15 µM (inactive) | 10.7 µM (inactive) | 7.71 µM (inactive)
2 | [N-]=[N+]=NC1OC(=O)C(Cl)=C1N=P(c1ccccc1)(c1ccccc1)c1ccccc1 (stereo not drawn) | > 10 µM (inactive) | 6.98 µM (inactive) | > 10 µM (inactive) | > 10 µM (inactive) | > 10 µM (inactive) | > 10 µM (inactive) | 2.95 µM (inactive) | 3.77 µM (inactive) |  | 9.71 µM (inactive) | 9.27 µM (inactive) | 7.24 µM (inactive) | > 10 µM (inactive) | > 10 µM (inactive) | 7.35 | 7.78 µM (inactive) | 3.01 µM (inactive) | > 10 µM (inactive) | > 10 µM (inactive) | > 10 µM (inactive)
3 | CCc1ccc(CCC(=O)O)nc1 | > 100 µM (inactive) | > 100 µM (inactive) | > 100 µM (inactive) | > 100 µM (inactive) | > 100 µM (inactive) | > 100 µM (inactive) | > 100 µM (inactive) | > 100 µM (inactive) | > 100 µM (inactive) | > 100 µM (inactive) | > 100 µM (inactive) | > 100 µM (inactive) | > 100 µM (inactive) | > 100 µM (inactive) | > 100 | > 100 µM (inactive) |  | > 100 µM (inactive) | > 100 µM (inactive) | > 100 µM (inactive)
4 | CCOC(=O)/C(C(=O)Nc1cccc(Cl)c1)=C(/N)N1CCOCC1 | > 100 µM (inactive) | > 100 µM (inactive) | > 100 µM (inactive) | > 100 µM (inactive) | > 100 µM (inactive) | > 100 µM (inactive) | > 100 µM (inactive) | > 100 µM (inactive) | > 100 µM (inactive) | > 100 µM (inactive) | > 100 µM (inactive) | > 100 µM (inactive) | > 100 µM (inactive) | > 100 µM (inactive) | > 100 | > 100 µM (inactive) | > 100 µM (inactive) | > 100 µM (inactive) | > 100 µM (inactive) | > 100 µM (inactive)
5 | CC1(C)CCC2=C(O1)/C(=N\Nc1ccc(F)cc1)c1ccccc1C2=O | 25.5 µM (inactive) | 20.1 µM (inactive) | 35.2 µM (inactive) | 26.2 µM (inactive) | > 100 µM (inactive) | 35.6 µM (inactive) | 34.8 µM (inactive) | 16 µM (inactive) | 18.9 µM (inactive) | 34.4 µM (inactive) | 35.1 µM (inactive) | 20.7 µM (inactive) | 32.4 µM (inactive) | 41.9 µM (inactive) | 43.6 | 11.5 µM (inactive) | 35.3 µM (inactive) | 41.8 µM (inactive) | 30.3 µM (inactive) | 32.3 µM (inactive)
6 | COc1cccc(/C=C2\CCC(CN(C)C)C2=O)c1 (stereo not drawn) | 2.21 µM (inactive) | 3.6 µM (inactive) | 6.07 µM (inactive) | 3.03 µM (inactive) | 16.3 µM (inactive) | 12.1 µM (inactive) | 12.4 µM (inactive) | 0.638 µM (active) | 6.05 µM (inactive) | 9.82 µM (inactive) | 4.35 µM (inactive) | 16.6 µM (inactive) | 3.5 µM (inactive) | 3.91 µM (inactive) | 2.58 | 1.73 µM (inactive) | 1.44 µM (inactive) | 3.08 µM (inactive) | 16.3 µM (inactive) | 11.8 µM (inactive)
7 | Nc1nc(Cl)c(N)c(NCC2(CO)CC2)n1 | > 100 µM (inactive) | > 100 µM (inactive) | > 100 µM (inactive) | > 100 µM (inactive) | > 100 µM (inactive) | > 100 µM (inactive) | > 100 µM (inactive) | > 100 µM (inactive) | > 100 µM (inactive) | > 100 µM (inactive) | > 100 µM (inactive) | > 100 µM (inactive) | > 100 µM (inactive) | > 100 µM (inactive) | > 100 | > 100 µM (inactive) | > 100 µM (inactive) | > 100 µM (inactive) | > 100 µM (inactive) | > 100 µM (inactive)
8 | C=CC(OC(C)=O)c1ccc(OC(=O)C(C)C)c(OC)c1 (stereo not drawn) | 2.6 µM (inactive) | 5.6 µM (inactive) | 3.18 µM (inactive) | 11.1 µM (inactive) | 19.6 µM (inactive) | 2.51 µM (inactive) | 5.19 µM (inactive) | 2.79 µM (inactive) | 2.31 µM (inactive) | 4.9 µM (inactive) | 2.49 µM (inactive) | 10.5 µM (inactive) | 1.99 µM (inactive) | 6.79 µM (inactive) | 4.98 | 1.95 µM (inactive) | 9.02 µM (inactive) | 4.81 µM (inactive) | 17.2 µM (inactive) | 4.48 µM (inactive)
9 | CN(C)C(=S)Oc1ccc2ccc(=O)oc2c1 | > 100 µM (inactive) | > 100 µM (inactive) | > 100 µM (inactive) | > 100 µM (inactive) | > 100 µM (inactive) | > 100 µM (inactive) | > 100 µM (inactive) | > 100 µM (inactive) | > 100 µM (inactive) | > 100 µM (inactive) | > 100 µM (inactive) | > 100 µM (inactive) | > 100 µM (inactive) | > 100 µM (inactive) | > 100 | > 100 µM (inactive) | > 100 µM (inactive) | > 100 µM (inactive) | > 100 µM (inactive) | > 100 µM (inactive)
10 | [O-][n+]1onc(-c2ccccc2)c1CN1CCOCC1 | > 100 µM (inactive) | > 100 µM (inactive) | > 100 µM (inactive) | > 100 µM (inactive) | > 100 µM (inactive) | > 100 µM (inactive) | 77.8 µM (inactive) | 20.7 µM (inactive) | > 100 µM (inactive) | 10.4 µM (inactive) | > 100 µM (inactive) | > 100 µM (inactive) | > 100 µM (inactive) | > 100 µM (inactive) | 72.9 | 71.8 µM (inactive) | 23.3 µM (inactive) | > 100 µM (inactive) | 61.9 µM (inactive) | > 100 µM (inactive)
11 | COC1C(CO)OC(n2c3c(Cl)cccc3c3c4c(c5c6cccc(Cl)c6[nH]c5c32)C(=O)NC4=O)C(O)C1O (stereo not drawn) | 0.0849 µM (active) | 0.333 µM (active) | 0.225 µM (active) | 0.337 µM (active) | 0.187 µM (active) | 0.796 µM (active) | 0.227 µM (active) | 0.22 µM (active) | 0.244 µM (active) | 0.337 µM (active) | 0.351 µM (active) | 0.286 µM (active) | 0.133 µM (active) | 0.162 µM (active) | 0.401 | 0.116 µM (active) | 0.0498 µM (active) | 0.177 µM (active) | 0.158 µM (active) | 0.386 µM (active)
12 | CC(C)NC(=O)OCc1c(COC(=O)NC(C)C)c(-c2ccc(Cl)c(Cl)c2)n2c1CCC2 | 21 µM (inactive) | 35.9 µM (inactive) | 31.3 µM (inactive) | 65 µM (inactive) | 28.1 µM (inactive) | 44.9 µM (inactive) | > 80.7 µM (inactive) | 26.6 µM (inactive) | 40.9 µM (inactive) | > 66.5 µM (inactive) | 52.8 µM (inactive) | 48.1 µM (inactive) | 20.7 µM (inactive) | > 100 µM (inactive) | 52.7 | 46.8 µM (inactive) | 13.7 µM (inactive) | 46.6 µM (inactive) | 34 µM (inactive) | 44.2 µM (inactive)
13 | Cc1cnc2nc(-c3cccc4ccccc34)cc(O)c2c1 | 0.000449 µM (active) | 0.000711 µM (active) | 0.000346 µM (active) | 0.000619 µM (active) | 0.01 µM (active) | 0.00351 µM (active) | 0.00121 µM (active) | 0.000232 µM (active) | 0.000412 µM (active) | 16.4 µM (inactive) | 0.000708 µM (active) | 0.000887 µM (active) | 0.000791 µM (active) | 0.0536 µM (active) | 0.000454 | 0.000819 µM (active) | 0.000955 µM (active) | 0.00251 µM (active) | 0.000352 µM (active) | 0.000335 µM (active)
14 | Cc1occc1C(=S)Nc1ccc(Cl)c(/C=N/OC(C)(C)C)c1 | 18.5 µM (inactive) | 18.2 µM (inactive) | 13.4 µM (inactive) | 17.7 µM (inactive) | 16.9 µM (inactive) | 15 µM (inactive) | 16 µM (inactive) | 17.3 µM (inactive) | 13.7 µM (inactive) | 18.3 µM (inactive) | 17.5 µM (inactive) | 13.3 µM (inactive) | 18.7 µM (inactive) | 17.6 µM (inactive) | 15 | 13.1 µM (inactive) | 9.51 µM (inactive) | 18.9 µM (inactive) | 20.4 µM (inactive) | 17.9 µM (inactive)
